# Publication PMC12340957, “Interactions between Lipopolysaccharide and Peptide Bacteriocin BacSp222 Influence Their Biological Activities” (ACS Infectious Diseases, 2025)
# Ends that are not written are not given here. * marks the point of attachment. For = O=C*
# B1: BacSp222 bacteriocin (peptide)
# chain: For-MAGLLRFLLSKGRALYNWAKSHVGKVWEWLKSGATYEQIKEWIENALGWR
# notes: molecular mass 5.922 kDa; also called peptide BacSp222
# B2: colicin N: protein bacteriocin whose receptor-binding domain binds to LPS (protein, UniProt P08083 1-387, looked up)
# Colicin-N: MGSNGADNAHNNAFGGGKNPGIGNTSGAGSNGSASSNRGNSNGWSWSNKPHKNDGFHSDGSYHITFHGDNNSKPKPGGNSGNRGNNGDGASAKVGEITITPDNSKPGRYISSNPEYSLLAKLIDAESIKGTEVYTFHTRKGQYVKVTVPDSNIDKMRVDYVNWKGPKYNNKLVKRFVSQFLLFRKEEKEKNEKEALLKASELVSGMGDKLGEYLGVKYKNVAKEVANDIKNFHGRNIRSYNEAMASLNKVLANPKMKVNKSDKDAIVNAWKQVNAKDMANKIGNLGKAFKVADLAIKVEKIREKSIEGYNTGNWGPLLLEVESWIIGGVVAGVAISLFGAVLSFLPISGLAVTALGVIGIMTISYLSSFIDANRVSNINNIISSVIR
# Legend:
# [1] = system: TLR4; conditions: literature statement; ref number not given; cited from earlier work
# From the text: Proteins and peptides capable of recognizing and binding LPS as well as altering its biological activity are present in both higher organisms and bacteria. In higher organisms, these polypeptides are most often involved in the immune response. One of the best-known examples is LPS-binding protein (LBP). It is an acute-phase plasma protein of mammals that forms a complex with LPS, and this complex then binds to CD14 (cluster of differentiation 14). This event initiates a signaling pathway through TLR4/MD-2 and triggers the activation of immune response. , In the absence of TLR4, MD-2 can also i ... || Regarding factors produced by bacteria, the canonical example of molecules interacting with LPS are polymyxins. […] Polymyxins are effective antibacterial drugs that interact with LPS in the outer and inner membranes of the cell wall, ultimately causing a lethal effect.
# [2] = literature statement; ref number not given; cited from earlier work
# From the text: Regarding factors produced by bacteria, the canonical example of molecules interacting with LPS are polymyxins. […] Polymyxins are effective antibacterial drugs that interact with LPS in the outer and inner membranes of the cell wall, ultimately causing a lethal effect. […] Colicins, a family of protein bacteriocins produced by , typically must cross the bacterial outer membrane to display bactericidal activity. Most colicins use porins and high-affinity receptors to cross the outer membrane and kill the target. However, for colicin N, there is no such high-affinity receptor, and this bacteriocin targets LPS instead. The receptor-binding domain of ColN binds to LPS near the membrane surface, and this interaction is required for its bactericidal activity. || Nisin, a peptide lantibiotic produced by , is another example of a bacteriocin that could utilize LPS as a receptor. […] The interaction described above leads to membrane disruption. The level of membrane disruption is related to the origin of the bacteria and the type of LPS as its rough type is more susceptible to nisin.
# [3] = target: the molecule itself; experiment: dynamic light scattering; BacSp222 alone at 5, 50 and 500 μg/mL in PBS without Ca2+ and Mg2+, incubated 15 min at 37 °C, measured at 37 °C (Prometheus Panta); performed once
Molecule,inhibition of LPS-induced TLR4 activation [1],interaction with LPS [2],binding result [3]
polymyxins [reference compound],"effectively block the biological effects of LPS, including TLR4 activation",high affinity to LPS,–
Nisin,–,forms a molecular complex in model membranes and bacterial outer membrane extracts,–
B1,–,–,binds
B2,–,targets LPS,–
